{
  "source": "paper PMC8550792",
  "about": "“Evolution of kinase polypharmacology across HSP90 drug discovery” (Cell Chemical Biology, 2021)",
  "assay_in_all_cases": "biochemical",
  "assay_type_in_all_cases": "biochemical",
  "key": {"382 unique human kinases [1]": {"target": "T1, 382 unique human kinases (Homo sapiens, UniProt P00533, L747S)", "T1 construct": "purchased Reaction Biology (HotSpot contract assay)", "conditions": "kinase EGFR (L747S), compound 10 uM; for remaining activity at 10 µM: read-out: % Enzyme Activity (relative to DMSO controls)"}, "382 unique human kinases [2]": {"target": "T2, 382 unique human kinases (Homo sapiens, UniProt P36507)", "T2 construct": "purchased Reaction Biology (HotSpot contract assay)", "T2 sequence (P36507 whole entry)": "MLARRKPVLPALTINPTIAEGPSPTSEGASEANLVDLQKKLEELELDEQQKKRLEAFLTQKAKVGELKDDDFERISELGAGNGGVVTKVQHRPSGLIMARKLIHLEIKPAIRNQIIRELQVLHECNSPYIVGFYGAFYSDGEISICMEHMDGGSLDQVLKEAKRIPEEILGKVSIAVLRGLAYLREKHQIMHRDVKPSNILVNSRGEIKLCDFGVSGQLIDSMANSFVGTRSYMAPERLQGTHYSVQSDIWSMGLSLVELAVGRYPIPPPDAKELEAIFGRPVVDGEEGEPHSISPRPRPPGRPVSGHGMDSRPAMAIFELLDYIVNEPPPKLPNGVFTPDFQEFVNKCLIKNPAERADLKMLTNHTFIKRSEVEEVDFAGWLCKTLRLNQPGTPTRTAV", "conditions": "MEK2, 10 uM; for remaining activity at 10 µM: read-out: % Enzyme Activity (relative to DMSO controls)"}, "382 unique human kinases [3]": {"target": "T3, 382 unique human kinases (Homo sapiens, UniProt Q13882)", "T3 construct": "purchased Reaction Biology (HotSpot contract assay)", "T3 sequence (Q13882 whole entry)": "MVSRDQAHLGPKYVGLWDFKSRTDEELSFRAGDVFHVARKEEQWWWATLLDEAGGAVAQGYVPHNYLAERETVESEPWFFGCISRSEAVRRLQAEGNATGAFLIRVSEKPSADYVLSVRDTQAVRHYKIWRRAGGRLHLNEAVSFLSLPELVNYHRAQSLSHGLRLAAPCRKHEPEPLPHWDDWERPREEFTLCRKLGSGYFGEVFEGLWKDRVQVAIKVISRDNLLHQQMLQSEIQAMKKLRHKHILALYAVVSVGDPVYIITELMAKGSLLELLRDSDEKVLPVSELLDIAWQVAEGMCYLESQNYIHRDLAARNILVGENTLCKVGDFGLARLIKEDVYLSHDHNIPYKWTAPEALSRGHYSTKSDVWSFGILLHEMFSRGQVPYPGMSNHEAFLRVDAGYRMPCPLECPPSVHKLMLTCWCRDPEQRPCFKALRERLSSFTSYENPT", "conditions": "BRK, 10 uM; for remaining activity at 10 µM: read-out: % Enzyme Activity (relative to DMSO controls)"}, "382 unique human kinases [4]": {"target": "T4, 382 unique human kinases (Homo sapiens, UniProt Q8IU85)", "T4 construct": "purchased Reaction Biology (HotSpot contract assay)", "T4 sequence (Q8IU85 whole entry)": "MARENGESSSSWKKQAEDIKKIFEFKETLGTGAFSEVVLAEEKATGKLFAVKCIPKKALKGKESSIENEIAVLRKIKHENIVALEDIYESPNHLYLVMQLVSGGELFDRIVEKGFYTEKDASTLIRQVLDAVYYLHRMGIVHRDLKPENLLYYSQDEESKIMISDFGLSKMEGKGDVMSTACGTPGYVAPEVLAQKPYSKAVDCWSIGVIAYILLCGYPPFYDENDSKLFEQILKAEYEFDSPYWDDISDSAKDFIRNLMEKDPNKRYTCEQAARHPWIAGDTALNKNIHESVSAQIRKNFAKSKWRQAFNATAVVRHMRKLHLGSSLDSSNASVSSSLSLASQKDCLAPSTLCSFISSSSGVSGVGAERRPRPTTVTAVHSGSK", "conditions": "kinase CAMK1d, compound 10 uM; for remaining activity at 10 µM: read-out: % Enzyme Activity (relative to DMSO controls)"}, "382 unique human kinases [5]": {"target": "T5, 382 unique human kinases (Homo sapiens, UniProt Q8NEV4)", "T5 construct": "purchased Reaction Biology (HotSpot contract assay)", "T5 sequence (Q8NEV4 whole entry)": "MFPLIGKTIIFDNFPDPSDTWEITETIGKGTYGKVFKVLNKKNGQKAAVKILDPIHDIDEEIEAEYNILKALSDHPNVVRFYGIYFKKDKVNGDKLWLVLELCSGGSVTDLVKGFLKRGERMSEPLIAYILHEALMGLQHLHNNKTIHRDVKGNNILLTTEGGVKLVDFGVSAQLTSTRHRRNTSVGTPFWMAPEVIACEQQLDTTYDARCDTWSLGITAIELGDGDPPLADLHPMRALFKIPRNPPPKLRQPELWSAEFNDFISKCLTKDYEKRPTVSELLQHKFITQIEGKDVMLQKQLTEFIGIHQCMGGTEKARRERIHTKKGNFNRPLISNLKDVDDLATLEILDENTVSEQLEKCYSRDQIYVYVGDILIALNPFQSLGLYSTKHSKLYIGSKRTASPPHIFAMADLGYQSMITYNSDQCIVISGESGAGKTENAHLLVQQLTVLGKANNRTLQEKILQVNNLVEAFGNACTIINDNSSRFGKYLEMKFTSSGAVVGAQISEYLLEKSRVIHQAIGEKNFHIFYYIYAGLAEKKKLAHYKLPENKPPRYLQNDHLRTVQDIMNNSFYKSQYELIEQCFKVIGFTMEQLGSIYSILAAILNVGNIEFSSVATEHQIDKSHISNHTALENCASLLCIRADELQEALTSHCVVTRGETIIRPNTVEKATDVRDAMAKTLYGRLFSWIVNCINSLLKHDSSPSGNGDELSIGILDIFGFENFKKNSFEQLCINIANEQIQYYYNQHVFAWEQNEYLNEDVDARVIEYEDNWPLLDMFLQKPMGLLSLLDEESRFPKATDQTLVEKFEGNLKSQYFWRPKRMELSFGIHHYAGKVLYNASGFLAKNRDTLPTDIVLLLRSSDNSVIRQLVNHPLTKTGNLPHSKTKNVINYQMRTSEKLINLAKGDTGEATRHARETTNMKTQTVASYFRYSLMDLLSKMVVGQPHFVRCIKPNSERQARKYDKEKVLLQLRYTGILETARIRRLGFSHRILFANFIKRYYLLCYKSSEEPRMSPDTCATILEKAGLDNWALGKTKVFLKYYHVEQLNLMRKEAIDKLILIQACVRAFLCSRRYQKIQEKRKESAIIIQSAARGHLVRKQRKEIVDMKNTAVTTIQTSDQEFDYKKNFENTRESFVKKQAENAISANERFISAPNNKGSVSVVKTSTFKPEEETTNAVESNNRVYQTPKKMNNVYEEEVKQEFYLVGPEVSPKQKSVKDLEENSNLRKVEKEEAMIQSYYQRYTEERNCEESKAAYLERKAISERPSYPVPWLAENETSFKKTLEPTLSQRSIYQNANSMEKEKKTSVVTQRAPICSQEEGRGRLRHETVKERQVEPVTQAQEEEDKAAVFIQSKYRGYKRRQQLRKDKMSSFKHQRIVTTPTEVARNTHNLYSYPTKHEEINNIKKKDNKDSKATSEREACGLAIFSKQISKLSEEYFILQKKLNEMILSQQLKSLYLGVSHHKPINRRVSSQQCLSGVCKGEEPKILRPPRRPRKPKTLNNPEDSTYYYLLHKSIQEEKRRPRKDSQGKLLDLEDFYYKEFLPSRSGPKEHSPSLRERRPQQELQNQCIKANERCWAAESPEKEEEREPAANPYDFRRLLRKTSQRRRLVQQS", "conditions": "MYO3A, 10 uM; for remaining activity at 10 µM: read-out: % Enzyme Activity (relative to DMSO controls)"}, "382 unique human kinases [6]": {"target": "T6, 382 unique human kinases (Homo sapiens, UniProt Q92918)", "T6 construct": "purchased Reaction Biology (HotSpot contract assay)", "T6 sequence (Q92918 whole entry)": "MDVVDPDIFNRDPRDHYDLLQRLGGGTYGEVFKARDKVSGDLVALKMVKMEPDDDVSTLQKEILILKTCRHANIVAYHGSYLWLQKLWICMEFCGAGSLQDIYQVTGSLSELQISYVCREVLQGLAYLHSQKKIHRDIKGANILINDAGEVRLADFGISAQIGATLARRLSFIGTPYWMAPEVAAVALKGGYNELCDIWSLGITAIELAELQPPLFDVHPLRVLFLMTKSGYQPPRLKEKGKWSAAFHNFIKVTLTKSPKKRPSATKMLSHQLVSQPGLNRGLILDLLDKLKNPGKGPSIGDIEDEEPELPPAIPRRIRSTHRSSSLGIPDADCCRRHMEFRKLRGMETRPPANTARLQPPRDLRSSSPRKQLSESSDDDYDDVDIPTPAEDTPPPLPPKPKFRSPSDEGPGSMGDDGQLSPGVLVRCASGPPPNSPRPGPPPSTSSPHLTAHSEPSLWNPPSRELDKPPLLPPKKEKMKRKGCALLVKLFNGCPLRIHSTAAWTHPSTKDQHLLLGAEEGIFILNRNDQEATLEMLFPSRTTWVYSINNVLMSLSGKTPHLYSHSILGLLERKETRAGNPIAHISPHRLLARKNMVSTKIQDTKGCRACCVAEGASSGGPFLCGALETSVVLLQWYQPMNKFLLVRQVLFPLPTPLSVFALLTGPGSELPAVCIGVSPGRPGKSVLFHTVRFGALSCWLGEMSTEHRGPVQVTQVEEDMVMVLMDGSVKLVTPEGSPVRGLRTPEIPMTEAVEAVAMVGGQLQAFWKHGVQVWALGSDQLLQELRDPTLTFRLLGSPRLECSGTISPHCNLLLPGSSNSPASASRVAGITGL", "conditions": "kinase HPK1/MAP4K1, compound 10 uM; for remaining activity at 10 µM: read-out: % Enzyme Activity (relative to DMSO controls)"}, "382 unique human kinases [7]": {"target": "T7, 382 unique human kinases (Homo sapiens, UniProt O94806)", "T7 construct": "purchased Reaction Biology (HotSpot contract assay)", "T7 sequence (O94806 1-890)": "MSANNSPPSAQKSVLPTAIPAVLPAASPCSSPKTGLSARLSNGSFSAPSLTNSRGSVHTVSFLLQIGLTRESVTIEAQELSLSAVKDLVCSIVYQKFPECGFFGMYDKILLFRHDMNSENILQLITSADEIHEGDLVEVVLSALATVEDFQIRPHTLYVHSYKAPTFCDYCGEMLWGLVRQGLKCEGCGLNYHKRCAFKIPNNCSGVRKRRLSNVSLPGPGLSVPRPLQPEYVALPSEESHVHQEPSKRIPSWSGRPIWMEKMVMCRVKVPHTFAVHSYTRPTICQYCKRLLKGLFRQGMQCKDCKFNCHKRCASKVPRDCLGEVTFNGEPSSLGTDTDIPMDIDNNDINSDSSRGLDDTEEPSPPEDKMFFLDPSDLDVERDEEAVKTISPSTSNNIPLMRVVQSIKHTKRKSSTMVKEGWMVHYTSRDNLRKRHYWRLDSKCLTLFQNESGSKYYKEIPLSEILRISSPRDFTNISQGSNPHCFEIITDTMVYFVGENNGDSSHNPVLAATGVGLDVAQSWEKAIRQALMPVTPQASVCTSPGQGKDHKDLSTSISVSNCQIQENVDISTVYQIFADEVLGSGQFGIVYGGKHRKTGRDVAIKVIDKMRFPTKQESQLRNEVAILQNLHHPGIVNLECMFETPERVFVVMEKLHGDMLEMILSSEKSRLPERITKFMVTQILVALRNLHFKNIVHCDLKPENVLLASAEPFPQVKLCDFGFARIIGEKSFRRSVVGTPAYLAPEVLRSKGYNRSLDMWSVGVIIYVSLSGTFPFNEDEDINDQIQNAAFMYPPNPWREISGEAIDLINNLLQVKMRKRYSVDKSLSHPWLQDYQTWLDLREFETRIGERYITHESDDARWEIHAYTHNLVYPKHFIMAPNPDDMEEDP", "conditions": "PKCnu/PRKD3, [ATP] 30 µM, compound 10 uM; for remaining activity at 10 µM: read-out: % Enzyme Activity (relative to DMSO controls)"}, "382 unique human kinases [8]": {"target": "T8, 382 unique human kinases (Homo sapiens, UniProt P11309)", "T8 construct": "purchased Reaction Biology (HotSpot contract assay)", "T8 sequence (P11309 whole entry)": "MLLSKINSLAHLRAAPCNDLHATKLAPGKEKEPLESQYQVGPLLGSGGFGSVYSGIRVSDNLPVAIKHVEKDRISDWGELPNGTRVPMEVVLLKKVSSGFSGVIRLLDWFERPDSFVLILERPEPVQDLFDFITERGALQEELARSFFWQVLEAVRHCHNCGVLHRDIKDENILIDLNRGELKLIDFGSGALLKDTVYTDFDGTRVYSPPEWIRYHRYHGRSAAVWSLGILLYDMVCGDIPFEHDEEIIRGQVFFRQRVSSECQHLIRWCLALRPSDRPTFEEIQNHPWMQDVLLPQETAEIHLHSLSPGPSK", "conditions": "PIM1, [ATP] 100 µM, compound 10 uM; for remaining activity at 10 µM: read-out: % Enzyme Activity (relative to DMSO controls)"}, "382 unique human kinases [9]": {"target": "T9, 382 unique human kinases (Homo sapiens, UniProt P51451)", "T9 construct": "purchased Reaction Biology (HotSpot contract assay)", "T9 sequence (P51451 whole entry)": "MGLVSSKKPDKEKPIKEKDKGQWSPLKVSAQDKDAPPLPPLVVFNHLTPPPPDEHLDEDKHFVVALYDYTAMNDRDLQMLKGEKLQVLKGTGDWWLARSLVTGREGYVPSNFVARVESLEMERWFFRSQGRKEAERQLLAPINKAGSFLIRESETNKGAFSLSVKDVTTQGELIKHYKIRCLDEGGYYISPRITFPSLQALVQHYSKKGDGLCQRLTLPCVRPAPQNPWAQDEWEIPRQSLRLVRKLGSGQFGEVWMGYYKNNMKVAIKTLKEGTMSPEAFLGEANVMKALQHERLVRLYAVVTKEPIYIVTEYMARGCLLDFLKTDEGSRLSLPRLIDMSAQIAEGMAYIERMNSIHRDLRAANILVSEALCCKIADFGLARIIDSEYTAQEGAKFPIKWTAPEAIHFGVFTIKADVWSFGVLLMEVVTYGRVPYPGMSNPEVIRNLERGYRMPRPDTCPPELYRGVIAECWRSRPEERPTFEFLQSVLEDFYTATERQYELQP", "conditions": "BLK, [ATP] 10 µM"}, "382 unique human kinases [10]": {"target": "T10, 382 unique human kinases (Homo sapiens, UniProt P54760)", "T10 construct": "purchased Reaction Biology (HotSpot contract assay)", "T10 sequence (P54760 16-987)": "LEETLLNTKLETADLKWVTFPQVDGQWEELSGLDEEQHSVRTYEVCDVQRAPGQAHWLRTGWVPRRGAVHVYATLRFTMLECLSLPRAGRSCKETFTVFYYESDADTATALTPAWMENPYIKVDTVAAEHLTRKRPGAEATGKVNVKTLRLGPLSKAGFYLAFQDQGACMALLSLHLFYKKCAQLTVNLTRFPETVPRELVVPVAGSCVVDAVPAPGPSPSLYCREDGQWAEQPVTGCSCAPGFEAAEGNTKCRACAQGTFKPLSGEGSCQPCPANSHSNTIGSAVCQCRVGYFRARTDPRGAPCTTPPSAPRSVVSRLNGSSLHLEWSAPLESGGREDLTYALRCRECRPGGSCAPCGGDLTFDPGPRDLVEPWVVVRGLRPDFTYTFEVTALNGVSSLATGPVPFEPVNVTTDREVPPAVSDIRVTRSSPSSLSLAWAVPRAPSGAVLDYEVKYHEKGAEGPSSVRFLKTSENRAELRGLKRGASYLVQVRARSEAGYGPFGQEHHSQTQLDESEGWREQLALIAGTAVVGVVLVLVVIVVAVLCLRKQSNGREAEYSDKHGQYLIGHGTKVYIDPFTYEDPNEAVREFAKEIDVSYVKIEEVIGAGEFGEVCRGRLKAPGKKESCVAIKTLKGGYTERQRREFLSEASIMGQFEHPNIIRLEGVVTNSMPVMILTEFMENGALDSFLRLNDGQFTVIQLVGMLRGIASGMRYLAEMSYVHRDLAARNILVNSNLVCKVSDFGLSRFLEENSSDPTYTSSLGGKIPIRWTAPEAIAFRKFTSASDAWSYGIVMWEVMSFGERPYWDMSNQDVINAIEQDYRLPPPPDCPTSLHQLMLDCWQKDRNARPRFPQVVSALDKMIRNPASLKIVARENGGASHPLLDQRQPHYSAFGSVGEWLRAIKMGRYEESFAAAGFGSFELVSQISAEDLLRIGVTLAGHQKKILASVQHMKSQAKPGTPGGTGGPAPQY", "conditions": "EPHB4, [ATP] 20 µM, compound 10 uM; for remaining activity at 10 µM: read-out: % Enzyme Activity (relative to DMSO controls)"}, "[11]": {"conditions": "compound 10 uM, read-out: % Enzyme Activity (relative to DMSO controls)"}},
  "data": [
    {"smiles": "CC(C)c1cc(-c2n[nH]c(=O)n2-c2ccc3c(ccn3C)c2)c(O)cc1O", "note": "[Ganetespib (STA9090)]", "values": [
      {"measurement": "remaining activity at 10 µM", "setting": "382 unique human kinases [1]", "value": 88, "unit": "%"},
      {"measurement": "remaining activity at 10 µM", "setting": "382 unique human kinases [2]", "value": 61.1, "unit": "%"},
      {"measurement": "remaining activity at 10 µM", "setting": "382 unique human kinases [3]", "value": 67.4, "unit": "%"},
      {"measurement": "remaining activity at 10 µM", "setting": "382 unique human kinases [4]", "value": 86.2, "unit": "%"},
      {"measurement": "remaining activity at 10 µM", "setting": "382 unique human kinases [5]", "value": 97.3, "unit": "%"},
      {"measurement": "remaining activity at 10 µM", "setting": "382 unique human kinases [6]", "value": 97.5, "unit": "%"}
    ]},
    {"smiles": "CC(C)c1cc(-c2n[nH]c(=O)n2-c2ccc3c(ccn3C)c2)c(O)cc1O", "note": "[Ganetespib]", "values": [
      {"measurement": "remaining activity at 10 µM", "setting": "382 unique human kinases [7]", "value": 54.7, "unit": "%"},
      {"measurement": "remaining activity at 10 µM", "setting": "382 unique human kinases [8]", "value": 15.9, "unit": "%"},
      {"measurement": "remaining activity at 1 µM", "setting": "382 unique human kinases [9]; compound 1 uM, read-out: % Enzyme Activity (relative to DMSO controls)", "value": 38.4, "unit": "%"},
      {"measurement": "remaining activity at 10 µM", "setting": "382 unique human kinases [9]; [11]", "value": 7.74, "unit": "%"},
      {"measurement": "remaining activity at 10 µM", "setting": "382 unique human kinases [10]", "value": 33.1, "unit": "%"}
    ]},
    {"smiles": "CCNC(=O)c1noc(-c2cc(C(C)C)c(O)cc2O)c1-c1ccc(CN2CCOCC2)cc1", "note": "[Luminespib (AUY-922)]", "values": [
      {"measurement": "% Enzyme Activity (relative to DMSO controls)", "setting": "382 unique human kinases [1]", "value": 107.24, "unit": "%"},
      {"measurement": "remaining activity at 10 µM", "setting": "382 unique human kinases [1]", "value": 108, "unit": "%"},
      {"measurement": "% Enzyme Activity (relative to DMSO controls)", "setting": "382 unique human kinases [2]", "value": 98.43, "unit": "%"},
      {"measurement": "remaining activity at 10 µM", "setting": "382 unique human kinases [2]", "value": 99.5, "unit": "%"},
      {"measurement": "% Enzyme Activity (relative to DMSO controls)", "setting": "382 unique human kinases [3]", "value": 83.67, "unit": "%"},
      {"measurement": "remaining activity at 10 µM", "setting": "382 unique human kinases [3]", "value": 84.8, "unit": "%"},
      {"measurement": "% Enzyme Activity (relative to DMSO controls)", "setting": "382 unique human kinases [4]", "value": 100.18, "unit": "%"},
      {"measurement": "remaining activity at 10 µM", "setting": "382 unique human kinases [4]", "value": 101, "unit": "%"},
      {"measurement": "% Enzyme Activity (relative to DMSO controls)", "setting": "382 unique human kinases [5]", "value": 74.72, "unit": "%"},
      {"measurement": "remaining activity at 10 µM", "setting": "382 unique human kinases [5]", "value": 76.4, "unit": "%"},
      {"measurement": "% Enzyme Activity (relative to DMSO controls)", "setting": "382 unique human kinases [6]", "value": 120.08, "unit": "%"},
      {"measurement": "remaining activity at 10 µM", "setting": "382 unique human kinases [6]", "value": 121, "unit": "%"}
    ]},
    {"smiles": "CCNC(=O)c1noc(-c2cc(C(C)C)c(O)cc2O)c1-c1ccc(CN2CCOCC2)cc1", "note": "[Luminespib]", "values": [
      {"measurement": "% Enzyme Activity (relative to DMSO controls)", "setting": "382 unique human kinases [7]", "value": 116.94, "unit": "%"},
      {"measurement": "remaining activity at 10 µM", "setting": "382 unique human kinases [7]", "value": 120, "unit": "%"},
      {"measurement": "% Enzyme Activity (relative to DMSO controls)", "setting": "382 unique human kinases [8]", "value": 94.76, "unit": "%"},
      {"measurement": "remaining activity at 10 µM", "setting": "382 unique human kinases [8]", "value": 97.2, "unit": "%"},
      {"measurement": "% Enzyme Activity (relative to DMSO controls)", "setting": "382 unique human kinases [9]; compound 10 uM", "value": 36.97, "unit": "%"},
      {"measurement": "remaining activity at 10 µM", "setting": "382 unique human kinases [9]; [11]", "value": 38.1, "unit": "%"},
      {"measurement": "% Enzyme Activity (relative to DMSO controls)", "setting": "382 unique human kinases [10]", "value": 81.04, "unit": "%"},
      {"measurement": "remaining activity at 10 µM", "setting": "382 unique human kinases [10]", "value": 82.2, "unit": "%"}
    ]}
  ]
}
